Tests used:
Assay type in all cases: binding
MBP-MshC = MBP-MshC (Mycobacterium tuberculosis, UniProt P9WJM9); test: NOESY / transferred NOESY in the presence of MBP-MshC; settings: free in solution vs in the presence of MBP-MshC
[1] = molecular target: M. tuberculosis MshC (MBP-MshC) (Mycobacterium tuberculosis, UniProt P9WJM9); test: 1H STD NMR in the presence of MBP-MshC; settings: for STD relative enhancement for H-2″ / STD relative enhancement for H-3″: normalized to adenine H-2, 20 μM MBP-MshC, 900 μM ligand
soluble MBP tag = soluble MBP tag (Escherichia coli, UniProt P0AEX9); test: 1H STD NMR with soluble MBP tag as control
MshC = MshC (Mycobacterium tuberculosis, UniProt P9WJM9); test: isothermal titration calorimetry; settings: ITC
Sequence of MshC (P9WJM9 whole entry): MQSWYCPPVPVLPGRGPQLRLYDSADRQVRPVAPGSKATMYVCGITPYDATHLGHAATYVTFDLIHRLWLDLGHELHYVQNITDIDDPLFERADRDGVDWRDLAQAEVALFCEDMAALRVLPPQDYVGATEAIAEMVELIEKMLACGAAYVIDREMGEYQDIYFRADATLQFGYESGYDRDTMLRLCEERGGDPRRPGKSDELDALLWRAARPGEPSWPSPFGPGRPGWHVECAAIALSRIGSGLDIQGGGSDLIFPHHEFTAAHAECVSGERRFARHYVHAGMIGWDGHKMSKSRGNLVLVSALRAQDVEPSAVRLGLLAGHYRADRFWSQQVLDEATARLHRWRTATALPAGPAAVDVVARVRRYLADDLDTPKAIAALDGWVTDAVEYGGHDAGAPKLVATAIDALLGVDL

Sequence of M. tuberculosis MshC (MBP-MshC) (P9WJM9 whole entry): as above
Sequence of MBP-MshC (P9WJM9 whole entry): as above

Nc1ncnc2c1ncn2[C@@H]1O[C@H](COS(=O)(=O)NC(=O)[C@@H](N)CS)[C@@H](O)[C@H]1O [Compound 1, 5′-O-[N-(L-cysteinyl)sulfamoyl] adenosine]
NOESY/trNOESY cross peaks (binding) (MBP-MshC): cross peaks changed in sign from positive to negative
STD relative enhancement for H-2″ [1]: 21%
STD relative enhancement for H-3″ [1]: 10%
binding to the soluble MBP tag (soluble MBP tag): No binding was observed

Nc1ncnc2c1ncn2[C@@H]1O[C@H](COS(=O)(=O)NC(=O)[C@@H](N)CC(=O)O)[C@@H](O)[C@H]1O [Compound 3]
heats of binding (MshC): No heats of binding were detected
NOESY/trNOESY cross peaks (binding) (MBP-MshC): did not contain any cross peaks
signal-to-noise (S/N) ratio in the STD difference spectra ([1]; in the presence of MshC, reference spectra S/N 170): 20
STD relative enhancement for H-2″ [1]: 12%
STD relative enhancement for H-3″ [1]: no effect could be observed
binding to the soluble MBP tag (soluble MBP tag): No binding was observed

Reference: publication PMC3109356 (Bioorganic & medicinal chemistry letters, 2011)
